Measurements from article PMC7228089, “Odiparcil, a potential glycosaminoglycans clearance therapy in mucopolysaccharidosis VI—Evidence from in vitro and in vivo models” (PLoS ONE, 2020).

Columns and labels:
Arsb^- mice [1] = assay: Granule accumulation in leukocytes (May-Grunwald-Giemsa blood smears); format: in vivo; conditions: early disease treatment, 6 months, high dose (4.5 g/kg diet)
Experimental: (§1) MPS VI model nonsense mutation Arsb^m1J homozygous mice (referred to as Arsb^- throughout the manuscript) and WT littermates were obtained from internal breeding of stock mice derived from The Jackson Laboratory strain No: 005598 (C57BL/6J-Arsb^m1J/GrsrJ). Genotyping and Arsb^m1J mutation identification were performed according to the protocol provided by The Jackson Laboratory. Each study group contained mix of male and female: 6 animals in disease progression studies and between 8 and 12 animals in odiparcil treatment studies.
Housing conditions. The animals were housed in groups of 3–10 (for mice) or 2 (for rats) in polypropylene cages (floor area = 1032 cm^2) under standard conditions: room temperature (22 ± 2°C), hygrometry (55 ± 10%), light/dark cycle (12h/12h), air replacement (15–20 volumes/hour), water and food ad libitum. Mice were allowed to habituate for at least 5 days prior to experimentation. Mice were numbered by marking their tail using indelible markers. […]
Quantification of the accumulation of granules in leukocytes was done after May-Grunwald–Giemsa staining of blood smears and microscopic examination. […] Only blood smears from WT chow diet, Arsb^- chow diet and Arsb^- treated with high dose of odiparcil (4.5 g/kg diet) were analyzed. […]

Arsb^- mice [2] = assay: Urinary excretion of total sulphated GAG (Blyscan) in mice treated with odiparcil; format: in vivo
Experimental: as §1
Housing conditions. The animals were housed in groups of 3–10 (for mice) or 2 (for rats) in polypropylene cages (floor area = 1032 cm^2) under standard conditions: room temperature (22 ± 2°C), hygrometry (55 ± 10%), light/dark cycle (12h/12h), air replacement (15–20 volumes/hour), water and food ad libitum. […]
Total sulphated GAG in cell culture media were determined colorimetrically by DMMB method (described in [31] adapted for cell culture media). Total sulphated GAG in snap frozen liver and kidney samples and urine were measured using Blyscan assay from Biocolor Company (UK) following manufacturer’s instructions. […] For GAG in tissues quantification, individual pieces (approximately 50 mg) were removed from the frozen samples (liver and kidney), weighed and digested in 1 mL papain solution prepared according to the Blyscan kit protocol. […]

[3] = tested on: Bovine aortic endothelial cells; assay: Secretion of [35S]-labelled sulphated GAG into culture medium of BAE cells; format: cell-based; conditions: for Mean CSGAG (%) of total secreted sulphated GAG / Mean HSGAG (%) of total secreted sulphated GAG: BAE cell culture media; for Mean CSGAG (%) of total secreted sulphated GAG: CSase ABC degradation; for Mean HSGAG (%) of total secreted sulphated GAG: Heparitinase II degradation; for Maximum stimulation of HSGAG secretion (fold over the base level): at 10 μM odiparcil
Experimental: GAG secreted into cell culture supernatant were analysed in Bovine aortic endothelial cells (ECACC 92010601), cultured in 6-well plates and incubated for 24 h in the presence of [^35S] sodium sulphate ([…]; 0.1% final concentration of DMSO). The culture supernatants were recovered and the unincorporated [^35S] was then removed by gel filtration on Sephadex G25 columns, the GAG being eluted in the column exclusion fraction (V0). A solution of cetylpyridinium chloride (0.1% final concentration) was added to the eluent in order to precipitate the GAG for 24 h at room temperature. The samples were then centrifuged and the supernatant was removed. The precipitate obtained was re-suspended in 2 M magnesium chloride and the GAG were precipitated with 5 volumes of 95% ethanol. After centrifugation, the alcoholic precipitates were re-suspended in 0.9% sodium chloride and then the radioactivity was measured.
In order to sort the GAG produced in the supernatants from cells in culture, the re-suspended alcoholic precipitates were treated with chondroitinase ABC (Proteus vulgaris) in a proportion of 0.5 mU/μL, for 3 h at 37°C. After inactivation of the enzyme for 3 min at 100°C, the undigested GAG were precipitated with 5 volumes of 95% ethanol, overnight at 4°C. After centrifugation, the alcoholic precipitates were re-suspended in 0.9% sodium chloride and then the radioactivity was measured on an aliquot fraction after addition of scintillation fluid in counting vials. GAG of heparan sulphate type were treated with heparinase II (Flavobacterium heparinum) in a proportion of 4 mU/μl, for 12 h at 30°C. After inactivation of the enzyme for 3 min at 100°C, the undigested GAG were precipitated with 5 volumes of 95% ethanol, overnight at 4°C. After centrifugation, the alcoholic precipitates were re-suspended in 0.9% sodium chloride and then the radioactivity was measured on an aliquot fraction after addition of scintillation fluid in counting vials.

[4] = BAE cells, 24 h, [35S] sulphate

With `Cc1cc(=O)oc2cc(O[C@@H]3SC[C@@H](O)[C@H](O)[C@H]3O)ccc12` [Odiparcil, 4-methyl-7-(5-thio-β-D-xylopyranosyloxy)-2 H-chromen-2-one] the “Leukocytes with high granules accumulation” value (Arsb^- mice [1]) was “reduced number of leukocytes with high granules accumulation”, the “Urinary GAG after discontinuation of the treatment” value (Arsb^- mice [2]; Arsb^- mice, two weeks after discontinuation) was “no elevated GAG were detected on top of the basal level” and the “Total sulphated GAG in urine” value (Arsb^- mice [2]; wild type and Arsb^- mice, oral 1.5 or 4.5 g/kg diet, after 3 and 6 months, early and advanced disease protocols) was “elevation of total GAG in urine”. The “Mean CSGAG (%) of total secreted sulphated GAG” value (“Mean CSGAG (%)” below) ([3]; odiparcil 0.1 µM) was 78.5%, the “Mean HSGAG (%) of total secreted sulphated GAG” value (“Mean HSGAG (%)” below) ([3]; odiparcil 0.1 µM) was 34.5% and the “Mean CSGAG (%)” value ([3]; odiparcil 0.3 µM) was 83.5%. For the same molecule, the “Mean HSGAG (%)” value ([3]; odiparcil 0.3 µM) was 28.0%, the “Mean CSGAG (%)” value ([3]; odiparcil 1 µM) was 83.9% and the “Mean HSGAG (%)” value ([3]; odiparcil 1 µM) was 16.0%. The “Mean CSGAG (%)” value ([3]; odiparcil 3 µM) was 82.5%, the “Mean HSGAG (%)” value ([3]; odiparcil 3 µM) was 15.0% and the “Mean CSGAG (%)” value ([3]; odiparcil 10 µM) was 73.5%. The “Mean HSGAG (%)” value ([3]; odiparcil 10 µM) was 19.5%, the “Maximum CS-like GAGs (fold stimulation over the base level)” value [3, 4] was 12.2 fold and the “Maximum stimulation of total GAG secretion (fold over the base level)” value ([3]; BAE cells, 24 h, [35S] sulphate, achieved with 3 μM odiparcil) was 10.7 fold. For the same molecule, the “Maximum stimulation of HSGAG secretion (fold over the base level)” value [3, 4] was 4.92 fold and the “Maximum stimulation of HSGAG secretion (fold over the base level)” value ([3]; BAE cells, 24 h, [35S] sulphate, listed as odiparcil) was 4.9 fold.
